Test results: ChEMBL document CHEMBL4602674, “19-nor-, 20-nor-, and tetranor-Halimane-Type Furanoditerpenoids from Croton crassifolius” (J Nat Prod, 2020)

Columns and labels:
[1] = test system: RAW264.7; experiment: Cytotoxicity against mouse RAW264.7 cells at 50 uM after 48 hrs by MTT assay; format: cell-based; conditions: raw264.7, 48 h
[2] = test system: RAW264.7; experiment: Inhibition of LPS-induced NO production in mouse RAW264.7 cells preincubated for 30 mins followed by LPS stimulation and measured after 24 hrs by Griess assay; format: functional, cell-based

Row | Structure (SMILES) | IC50 [2] | Activity [1]
1 | CO[C@@]12C[C@@H](C)[C@]3(C[C@@H](c4ccoc4)OC3=O)[C@@H]3CCCC(=C31)C(=O)O2 | > 50 µM | Non-Toxic
2 | COC(=O)[C@@]1(C)C2=C(CC[C@H]1OC(C)=O)[C@@]1(C[C@@H](c3ccoc3)OC1=O)[C@H](C)CC2 [CRASSIFOLIN F] | > 50 µM | Non-Toxic
3 | COC(=O)[C@@]1(C)CC(=O)C2=C3[C@@](C)(CC2=O)[C@H](C)CC[C@]31O | > 50 µM | Non-Toxic
4 | COC(=O)[C@@]1(COC(C)=O)CCCC2=C1CC[C@@H](C)[C@]21C[C@@H](c2ccoc2)OC1=O | > 50 µM | Non-Toxic
5 | Cc1cc(O)cc2c1CC[C@@H](C)[C@]2(C)CC(=O)c1ccoc1 | 23.7 µM | Non-Toxic
6 | COC(=O)C1(C(=O)OC)CCCC2=C1[C@@H]1C[C@@H](C)[C@@]2(CC(=O)c2ccoc2)C(=O)O1 | > 50 µM | Non-Toxic
7 | C[C@@H]1C[C@@H]2OC(=O)[C@]3(O)CCCC(=C23)[C@@]12C[C@@H](c1ccoc1)OC2=O | > 50 µM | Non-Toxic
8 | COC(=O)[C@@]1(C)C2=C(CC[C@H]1OC(C)=O)[C@@]1(C[C@@H](c3ccoc3)OC1=O)[C@H](C)CC2=O | > 50 µM | Non-Toxic
9 | C[C@@H]1C[C@@H](O)C2=C(C[C@@H]3C[C@]2(C)C(=O)O3)[C@@]12C[C@@H](c1ccoc1)OC2=O | > 50 µM | Non-Toxic
10 | C[C@@H]1C[C@@H]2OC(=O)C3=C2[C@](O)(CCC3)[C@@]12C[C@@H](c1ccoc1)OC2=O | > 50 µM | Non-Toxic
11 | C[C@@H]1C[C@H]2OC(=O)[C@@]3(CO)CCCC(=C23)[C@@]12C[C@@H](c1ccoc1)OC2=O | > 50 µM | Non-Toxic
12 | COC(=O)[C@@]1(CO)CCCC2=C1[C@@H](O)C[C@@H](C)[C@]21C[C@@H](c2ccoc2)OC1=O | > 50 µM | Non-Toxic
13 | COC(=O)[C@@]1(C)C2=C(CC[C@H]1O)[C@@]1(C[C@@H](c3ccoc3)OC1=O)[C@H](C)CC2 | > 50 µM | Non-Toxic
14 | COC(=O)C1(C(=O)OC)C2=C(CC[C@@H]1OC(C)=O)[C@@]1(C[C@@H](c3ccoc3)OC1=O)[C@H](C)CC2=O | > 50 µM | Non-Toxic
15 | COC(=O)[C@]1(C)CCCC2=C1C(=O)C[C@@H](C)[C@]2(C)CCC1=CC(=O)OC1 | > 50 µM | Non-Toxic
16 | COC(=O)C1(C(=O)OC)CCCC2=C1[C@@H](OC(C)=O)C[C@@H](C)[C@]21C[C@@H](c2ccoc2)OC1=O | > 50 µM | Non-Toxic
17 | COC(=O)[C@@]1(CO)CCCC2=C1[C@@H](OC(C)=O)C[C@@H](C)[C@]21C[C@@H](c2ccoc2)OC1=O | > 50 µM | Non-Toxic
18 | O=c1c(O)c(-c2ccc(O)c(O)c2)oc2cc(O)cc(O)c12 [QUERCETIN] | 15.1 µM | –
19 | COC(=O)[C@]1(C)C2=C(CC[C@H]1O)[C@@]1(C[C@@H](c3ccoc3)OC1=O)[C@H](C)C[C@@H]2OC(C)=O | > 50 µM | Non-Toxic
20 | COC(=O)[C@@]1(C)CC(=O)C=C2[C@@](C)(CC(=O)c3ccoc3)[C@H](C)CC[C@]21O | > 50 µM | Non-Toxic
21 | COC(=O)[C@@]1(C)CCCC2=C1[C@@H](OC(C)=O)C[C@@H](C)[C@]21C[C@@H](c2ccoc2)OC1=O | > 50 µM | Non-Toxic

Now from value to compound, other results behind:

Row | IC50 [2] | Structure (SMILES) | Activity [1]
22 | > 50 µM | COC(=O)C1(C(=O)OC)CCCC2=C(CC(=O)c3ccoc3)[C@H](C)CC=C21 | Non-Toxic
23 | 17.2 µM | CC1=CC(=O)C2=C3[C@@]1(O)CC[C@@H](C)[C@]3(C)C=C2c1ccoc1 | Non-Toxic
24 | > 50 µM | COC(=O)[C@@]1(C)CCCC2=C1[C@@H](O)C[C@@H](C)[C@]21C[C@@H](c2ccoc2)OC1=O | Non-Toxic
25 | > 50 µM | COC(=O)[C@]1(C)CCCC2=C1CC[C@@H](C)[C@]2(C)CCC1=CC(=O)OC1 | Non-Toxic
26 | > 50 µM | C[C@@H]1C[C@H]2OC(=O)C3=C2[C@@H](CCC3)[C@@]12C[C@@H](c1ccoc1)OC2=O | Non-Toxic
27 | > 50 µM | C[C@@H]1C[C@@H]2OC(=O)C3=C2[C@H](CCC3)[C@@]12C[C@@H](c1ccoc1)OC2=O [TEUCVIN] | Non-Toxic
28 | > 50 µM | C[C@@H]1CCC2=C(C[C@@H]3C[C@]2(C)C(=O)O3)[C@@]12C=C(c1ccoc1)OC2=O | Non-Toxic
29 | > 50 µM | COC(=O)[C@@]1(CO)CCCC2=C1C(=O)C[C@@H](C)[C@]21C[C@@H](c2ccoc2)OC1=O | Non-Toxic
30 | > 50 µM | CO[C@@H]1C[C@@H](C)[C@](C)(CC(=O)c2ccoc2)C2=C1[C@]1(C)C[C@H](C2)OC1=O | Non-Toxic
31 | > 50 µM | COC(=O)[C@@]1(COC(C)=O)CCCC2=C1[C@@H](O)C[C@@H](C)[C@]21C[C@@H](c2ccoc2)OC1=O | Non-Toxic
32 | > 50 µM | C[C@@H]1CCC2=C(C[C@H]3C[C@]2(C)C(=O)O3)[C@@]1(C)CC(=O)c1ccoc1 | Non-Toxic
